Experimental data taken from patent US20180327367A1, “MACROCYCLIC BROAD SPECTRUM ANTIBIOTICS” (priority 2015, published 2018).
≈ marks a conversion by molar mass, not a printed value. Read-outs that look alike come from different tables or passages of the source.

Experiments:
[1] = tested on: Methicillin Resistant Staphylococcus aureus strain USA 300, NRS384; experiment: Minimum inhibitory concentration, broth micro-dilution (CLSI), S. aureus; assay type: cell-based; settings: Staphylococcus aureus, MRSA / NRS 384 / USA300, 22 h, 35° C., 22 hours
Procedure, shortened: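 Ten-point 2-fold series began at 4 μg/mL in protocol 2 and 0.5 μg/mL in protocol 3, in cation-adjusted MHB plus 0.002% Tween-80. Bacteria added to OD600 0.0005 final and incubated at 35° C for 22 hours per CLSI microdilution.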

[2] = tested on: Escherichia coli MC4100 harboring the IMP4213 (E. coli IMP); experiment: microbe, parasite or virus in culture; assay type: cell-based; settings: Escherichia coli, 22 h, read-out: MIC (μg/mL) E. coli IMP, E. coli MC4100 IMP4213, increased outer-membrane permeability; 35° C., 22 hours
Procedure, shortened: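 Colonies grown 20 hours at 35° C were suspended in cation-adjusted Mueller Hinton Broth with 0.002% Tween-80. Cells were then added to 2-fold compound dilutions starting at 4 or 0.5 μg/mL, at OD600 0.0005.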

[3] = molecular target: T1, SpsB (Staphylococcus aureus signal peptidase) (Staphylococcus aureus, UniProt P0A070); experiment: cell-based; assay type: biochemical; settings: SpsB IC50, whole-cell S. aureus (USA300 background, overexpressing SpsB) as SpsB source; fluorogenic peptide substrate, kinetic read 30 min
T1 construct: This assay uses a suspension of Staphylococcus aureus cells as a source of SpsB instead of recombinant SpsB protein; endogenous in cells; host or cells: S. aureus, USA300 background, overexpressing SpsB (whole-cell suspension from frozen pellets)
T1 sequence (P0A070 whole entry): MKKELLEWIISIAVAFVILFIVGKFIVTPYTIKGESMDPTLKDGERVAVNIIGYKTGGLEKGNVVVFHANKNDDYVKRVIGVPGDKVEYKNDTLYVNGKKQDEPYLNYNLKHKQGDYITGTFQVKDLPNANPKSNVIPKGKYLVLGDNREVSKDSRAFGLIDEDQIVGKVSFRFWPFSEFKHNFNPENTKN
Procedure: A kinetic fluorogenic enzyme activity assay was used to assess inhibition of SpsB (Staphylococcus aureus signal peptidase) activity and IC50s were determined. This assay uses a suspension of Staphylococcus aureus cells as a source of SpsB instead of recombinant SpsB protein.
Cell preparation: Luria broth (LB) was inoculated with S. aureus (USA300 background, overexpressing SpsB) and shaken at 37° C. until an OD600 nm of 1.5-2.0 was reached (˜4 hr). The culture was then diluted to an OD600 nm of 1.0 with LB, aliquoted and centrifuged at 10,000×g for 2 mins. The supernatant was removed and the pellet was resuspended in phosphate buffer (1×PBS, 12.5 mg/L MgCl2, 25 mg/L CaCl2, 0.1% Tween-80) to an OD600 nm of 0.5, then centrifuged again at 10,000x g for 2 mins. The supernatant was removed and the pellets were frozen at −20° C.
Test compounds were prepared in DMSO at a concentration of 10 mg/mL. These compound stocks were diluted into DMSO to a concentration of 25 μg/mL and serial 3-fold dilutions were made in DMSO, for a total of 11 compound concentrations. 20 nL of each compound solution was pre-spotted into a white 384-well plate (50 μL/well polypropylene, Nunc) using acoustic fluid transfer (Echo).
Frozen S. aureus pellets were resuspended in assay buffer (1x PBS, 12.5 mg/L MgCl2, 25 mg/L CaCl2, 0.1% Tween-80) to an OD600 nm of 0.05, then mixed 1:1 (v/v) with 20 μM substrate ((Dabcyl)βAla-KPAKAAE(Edans)) in assay buffer, and this solution was added (20 μL/well) to the 384-well plate that had been pre-spotted with compound. Fluorescence intensity was then immediately read kinetically for 30 minutes with 2 minute read intervals to monitor cleavage of the internally quenched peptide substrate (excitation wavelength=340 nm, emission wavelength=490 nm, Molecular Devices Spectramax M5). Reaction rate (slope) was plotted against inhibitor concentration to derive the IC50.

[4] = tested on: Escherichia coli ATCC 25922; experiment: Minimum inhibitory concentration, broth micro-dilution (CLSI), E. coli; assay type: cell-based; settings: Escherichia coli, ATCC25922, 22 h, 35° C., 22 hours
[5] = MRSA USA 300 NRS384, read-out: MIC (μg/mL) S. aureus
[6] = E. coli ATCC 25922, read-out: MIC (μg/mL) E. coli
[7] = read-out: MIC (μg/mL) S. aureus, MRSA USA 300 NRS384
[8] = read-out: MIC (μg/mL) E. coli, E. coli ATCC 25922

## CCCCc1ccc(C(=O)N[C@@H](CCN)C(=O)N(C)[C@@H]2C(=O)N[C@@H](C)C(=O)N[C@H](C(=O)NCC#N)Cc3ccc(OCCN)c(c3)-c3cc2ccc3OCCN)c(C)c1 [Compound 208]
[1]; [5]
  MIC: 0.25 µg/mL (≈ 0.308 µM)
[2]
  MIC: 0.029 µg/mL (≈ 0.0357 µM)
[3]
  IC50: 0.99 nM
[4]; [6]
  MIC: 1.3 µg/mL (≈ 1.6 µM)

## CCCCCCCCCCNCCC(=O)N[C@@H](CCCCN)C(=O)N(C)[C@@H]1C(=O)N[C@@H](C)C(=O)N[C@H](C(=O)NCC#N)Cc2ccc(O)c(c2)-c2cc1ccc2OCCN [Compound 320]
[1]; [5]
  MIC: 0.13 µg/mL (≈ 0.156 µM)
[2]
  MIC: 2 µg/mL (≈ 2.4 µM)
[3]
  IC50: 0.97 nM
[4]; [6]
  MIC: > 64 µg/mL

## CCCCCCCc1cc(C)c(C(=O)N[C@@H](CCN)C(=O)N(C)[C@@H]2C(=O)N[C@@H](C)C(=O)N[C@H](C(=O)NCC#N)Cc3ccc(OCCN)c(c3)-c3cc2ccc3OCCN)c(F)c1 [Compound 188]
[1]; [5]
  MIC: 0.047 µg/mL (≈ 0.0539 µM)
[2]
  MIC: 0.018 µg/mL (≈ 0.0206 µM)
[3]
  IC50: 0.67 nM
[4]; [6]
  MIC: 0.22 µg/mL (≈ 0.252 µM)

## C[C@@H]1NC(=O)[C@@H](N(C)C(=O)[C@H](CCN)NC(=O)c2ccc(-c3ccc(C4CCCCC4)cc3)cc2)c2ccc(OCCN)c(c2)-c2cc(ccc2OCCN)C[C@@H](C(=O)NCC#N)NC1=O [Compound 432]
[1]; [7]
  MIC: 0.094 µg/mL (≈ 0.104 µM)
[2]
  MIC: 0.016 µg/mL (≈ 0.0178 µM)
[3]
  IC50: 1.4 nM
[4]; [8]
  MIC: 0.13 µg/mL (≈ 0.144 µM)

## CCCCCCCCc1ccc(C(=O)N[C@@H](CCO)C(=O)N(C)[C@@H]2C(=O)N[C@@H](C)C(=O)N[C@H](C(=O)NCC#N)Cc3ccc(OCCN)c(c3)-c3cc2ccc3OCCN)c(C)c1 [Compound 262]
[1]; [5]
  MIC: 0.063 µg/mL (≈ 0.0725 µM)
[2]
  MIC: 0.02 µg/mL (≈ 0.023 µM)
[3]
  IC50: 0.9 nM
[4]; [6]
  MIC: 1 µg/mL (≈ 1.15 µM)

## CCCCCCCCc1ccc(C(=O)N[C@@H](CCN)C(=O)N(C)[C@@H]2C(=O)N[C@@H](C)C(=O)N[C@H](C(=O)NCC#N)Cc3ccc(OCCN)c(c3)-c3cc2ccc3OCCN)c(F)c1 [Compound 184]
[1]; [5]
  MIC: 0.094 µg/mL (≈ 0.108 µM)
[2]
  MIC: 0.012 µg/mL (≈ 0.0138 µM)
[3]
  IC50: 0.89 nM
[4]; [6]
  MIC: 0.25 µg/mL (≈ 0.287 µM)

## CCCCCc1ncc(C(=O)N[C@@H](CCN)C(=O)N(C)[C@@H]2C(=O)N[C@@H](C)C(=O)N[C@H](C(=O)NCC#N)Cc3ccc(OCCN)c(c3)-c3cc2ccc3OCCN)c(C)n1 [Compound 200]
[1]; [5]
  MIC: 1 µg/mL (≈ 1.21 µM)
[3]
  IC50: 2.8 nM
[4]; [6]
  MIC: 4 µg/mL (≈ 4.83 µM)

## CCCCc1ccc(-c2ccc(C(=O)N[C@@H](CN)C(=O)N(C)[C@@H]3C(=O)N[C@@H](C)C(=O)N[C@H](C(=O)N[C@@H](C)C#N)Cc4ccc(OCCN)c(c4)-c4cc3ccc4OCCN)cc2)cc1 [Compound 340]
[2]
  MIC: < 0.063 µg/mL
[3]
  IC50: 0.69 nM
[4]; [6]
  MIC: 0.75 µg/mL (≈ 0.858 µM)

## C[C@@H]1NC(=O)[C@@H](N(C)C(=O)[C@H](CCCCN)NC(=O)c2ccc(-c3ccc(Cl)cc3)cc2)c2ccc(OCCN)c(c2)-c2cc(ccc2O)C[C@@H](C(=O)NCC#N)NC1=O [Compound 318]
[3]
  IC50: 0.8 nM

## CCCCCCCCc1ccc(C(=O)N[C@@H](CCCN)C(=O)N(C)[C@@H]2C(=O)N[C@@H](C)C(=O)N[C@H](C(=O)NCC#N)Cc3ccc(OC)c(c3)-c3cc2ccc3OC)cc1 [Compound 471]
[2]
  MIC: < 0.063 µg/mL
[3]
  IC50: 10 nM
[4]; [6]
  MIC: 48 µg/mL (≈ 59.3 µM)

## Cc1cc(Oc2ccc(C(C)(C)C)cc2)ccc1C(=O)N[C@@H](CCN)C(=O)N(C)[C@@H]1C(=O)N[C@@H](C)C(=O)N[C@H](C(=O)NCC#N)Cc2ccc(OCCN)c(c2)-c2cc1ccc2OCCN [Compound 302]
[1]; [7]
  MIC: 0.031 µg/mL (≈ 0.0343 µM)
[3]
  IC50: 0.79 nM
[4]; [8]
  MIC: 0.25 µg/mL (≈ 0.277 µM)

## CCCCCCCCc1ccc(C(=O)N[C@@H](CCN)C(=O)N(C)[C@@H]2C(=O)N[C@@H](C)C(=O)N[C@H](C(=O)NCC#N)Cc3ccc(OCCN)c(c3)-c3cc2ccc3OCCN)c(OCC(=O)O)c1 [Compound 409]
[1]; [5]
  MIC: 0.25 µg/mL (≈ 0.269 µM)
[2]
  MIC: < 0.0039 µg/mL
[4]; [6]
  MIC: 0.5 µg/mL (≈ 0.539 µM)
